Patent US20260158033A1, “VECABRUTINIB FOR THE TREATMENT OF GRAFT-VERSUS-HOST DISEASE” (Viracta Therapeutics, Inc., priority 2021, published 2026)

How the values were obtained:
[1] = mouse, in vivo
Description: (§1) A murine model of sclerodermatous cGVHD was initiated by adoptive transfer of T-cell depleted bone marrow plus whole splenocytes from B10.D2 donors into BALB/c recipients that were previously subjected to sub-lethal irradiation. Total bone marrow and irradiation only groups were included as controls. […] Body weight and clinical symptoms (appearance, activity, skin symptoms, diarrhea, conjunctivitis) were measured throughout the study. Immunophenotyping for B cells and T cells was performed on spleens collected from euthanized mice by flow cytometry at two timepoints (day 40 during treatment and on day 76 post-treatment). Levels of circulating immunoglobulins were measured by multiplex cytokine assay at both timepoints.
(§2) On day 40 (during treatment) and day 76 (post-treatment) groups of mice were euthanized for immunophenotyping analysis utilizing a 22-color flow cytometry panel. […] Scoring between 0-2 was assigned for each of the parameters (appearance, activity, skin symptoms, diarrhea, conjunctivitis) and totaled for each mouse.

ITK = molecular target: T1, ITK (Homo sapiens, UniProt Q08881); details: ITK expressed in T cells; cited from earlier work
T1 sequence (Q08881 1-620): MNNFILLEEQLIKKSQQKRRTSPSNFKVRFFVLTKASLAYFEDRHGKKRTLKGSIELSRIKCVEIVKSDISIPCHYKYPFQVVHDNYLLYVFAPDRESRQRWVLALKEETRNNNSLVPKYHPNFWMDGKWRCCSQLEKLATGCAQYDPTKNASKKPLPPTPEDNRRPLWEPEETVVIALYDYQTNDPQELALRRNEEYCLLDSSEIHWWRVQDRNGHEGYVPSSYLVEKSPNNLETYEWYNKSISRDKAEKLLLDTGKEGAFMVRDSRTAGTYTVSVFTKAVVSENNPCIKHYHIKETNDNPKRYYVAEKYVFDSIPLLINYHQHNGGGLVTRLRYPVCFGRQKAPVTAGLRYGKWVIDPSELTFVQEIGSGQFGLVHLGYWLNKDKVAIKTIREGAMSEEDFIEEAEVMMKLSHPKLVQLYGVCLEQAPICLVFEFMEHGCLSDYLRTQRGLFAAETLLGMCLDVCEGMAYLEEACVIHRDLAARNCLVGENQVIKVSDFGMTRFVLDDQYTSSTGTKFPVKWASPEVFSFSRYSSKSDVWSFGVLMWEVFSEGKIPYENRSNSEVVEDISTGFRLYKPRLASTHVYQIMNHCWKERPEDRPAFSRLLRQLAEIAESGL

B cells and T cells = assay: Immunophenotyping of spleen B cells and T cells by flow cytometry in cGVHD mice; assay type: in vivo, mouse (BALB/c recipients); details: during treatment (day 40)
Description: as §1, §2

[2] = tested on: murine model of sclerodermatous cGVHD; assay: Murine model of sclerodermatous cGVHD: clinical GVHD score and symptoms; assay type: in vivo, mouse (BALB/c recipients, B10.D2 donors)
Description: as §1, §2

BTK = BTK (Homo sapiens, UniProt Q06187); details: reversible, non-covalent; cited from earlier work
[3] = tested on: circulating immunoglobulins; assay: Circulating immunoglobulins by multiplex cytokine assay in cGVHD mice; assay type: in vivo, mouse (BALB/c recipients); details: during and post treatment, compared to vehicle
Description: as §1

BTK, sequence (Q06187 whole entry, species assumed): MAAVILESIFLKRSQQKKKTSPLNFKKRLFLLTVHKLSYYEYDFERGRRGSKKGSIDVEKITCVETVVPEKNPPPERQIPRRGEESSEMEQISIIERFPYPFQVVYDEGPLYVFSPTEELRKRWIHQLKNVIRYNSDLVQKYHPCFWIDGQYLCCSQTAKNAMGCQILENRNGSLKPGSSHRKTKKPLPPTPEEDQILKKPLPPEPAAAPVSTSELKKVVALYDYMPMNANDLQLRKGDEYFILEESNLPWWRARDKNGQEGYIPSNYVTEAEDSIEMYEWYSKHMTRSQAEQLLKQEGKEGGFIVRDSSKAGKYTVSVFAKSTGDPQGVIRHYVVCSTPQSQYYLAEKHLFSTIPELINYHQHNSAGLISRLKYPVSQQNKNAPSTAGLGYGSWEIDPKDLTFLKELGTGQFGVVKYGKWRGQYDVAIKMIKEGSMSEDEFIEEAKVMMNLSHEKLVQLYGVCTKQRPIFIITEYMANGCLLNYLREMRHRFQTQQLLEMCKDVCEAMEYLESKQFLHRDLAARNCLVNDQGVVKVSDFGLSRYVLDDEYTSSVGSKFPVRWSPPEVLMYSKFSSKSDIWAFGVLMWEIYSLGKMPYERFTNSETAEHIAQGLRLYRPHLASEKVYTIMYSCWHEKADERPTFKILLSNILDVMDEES

C=CC(=O)N1CCC[C@@H](n2nc(-c3ccc(Oc4ccccc4)cc3)c3c(N)ncnc32)C1 [Ibrutinib, reference compound]
Body weight post-treatment [1]: recovered body weight
Weight loss during treatment compared to vehicle [1]: slightly elevated

NC(=O)[C@H]1CCN(c2ncnc(N)c2F)C[C@@H]1N1CCC[C@@H](Nc2cc(Cl)cc(C(F)(F)F)c2)C1=O [Vecabrutinib, (3R,3′R,4'S)-1′-(6-amino-5-fluoropyrimidin-4-yl)-3-((3-chloro-5-(trifluoromethyl)phenyl)amino)-2-oxo-[1,3′-bipiperidine]-4′-carboxamide]
Activity against ITK (ITK): demonstrates activity
Activated and proliferating CD4+ and CD8+ T cells (B cells and T cells): reduced
B-cell activation (B cells and T cells): reduced
B-cell proliferation (B cells and T cells): reduced
CD4+ CXCR5+PD-1+ T follicular helper cells (B cells and T cells): reduced
CD4+CD25+ FoxP3+ Treg number (B cells and T cells): reduced
Cytotoxic granzyme-B+ CD8+ T cells (B cells and T cells): reduced
Expression of PD-1 on Tregs (B cells and T cells): reduced
Expression of antigen-presentation molecules CD80 and CD86 on B cells (B cells and T cells): unchanged
IL-4/5 secreted by B cells (B cells and T cells): less
IL-10 secreted by B cells (B cells and T cells): less
Number of B220+CD138+ plasma cells (B cells and T cells): reduced
Numbers of cytokine secreting CD4+ cells (B cells and T cells): globally reduced
Th1/Th2 or Th17/Treg ratios (B cells and T cells): no differences
Total B cell numbers (B cells and T cells): retained
Total CD3+ T cells (B cells and T cells): reduced
Avg. Score Day 58 ([2]; average clinical GVHD score, 0-2 per parameter (appearance, activity, skin symptoms, diarrhea, conjunctivitis) totaled, Day 58, vecabrutinib 50 mg/kg once daily oral gavage, ibrutinib 30 mg/kg in drinking water, day 27 to 45): 2.50
Avg. Score Day 66 ([2]; average clinical GVHD score, 0-2 per parameter totaled, Day 66, vecabrutinib 50 mg/kg once daily oral gavage, ibrutinib 30 mg/kg in drinking water, day 27 to 45): 1.30
Avg. Score Day 71 ([2]; average clinical GVHD score, 0-2 per parameter totaled, Day 71, vecabrutinib 50 mg/kg once daily oral gavage, ibrutinib 30 mg/kg in drinking water, day 27 to 45): 2.90
Clinical symptoms (appearance, activity, skin irritation, redness, alopecia and diarrhea) ([2]; treated groups, vecabrutinib 50 mg/kg oral, ibrutinib 30 mg/kg drinking water): significantly reduced
Clinical score overall compared to ibrutinib ([2]; vecabrutinib-treated group vs ibrutinib, small sample size): trend toward a more favorable clinical score overall
Body weight post-treatment [1]: recovered body weight
Weight loss during treatment compared to vehicle [1]: slightly elevated
BTK inhibition (BTK): potent
Circulating levels of IgA [3]: reduced
